Experimental data as given in article PMC12670405, “Second-Generation AURKA-Targeting PROTACs: Structural Optimization toward in Vivo Degradation in Neuroblastoma” (Journal of Medicinal Chemistry, 2025).

Legend:
Test in all cases: KINOMEscan scanMAX
Assay type in all cases: binding
Conditions in all cases: read-out: Percent Control
[1] = biological target: T1, KIT(V559D,T670I) (Homo sapiens, UniProt P10721, T670I/V559D)
T1 construct: purchased Eurofins Discovery (DiscoverX KINOMEscan scanMAX)
Protocol: (§1) The kinome-wide binding assay was performed by Eurofins Discovery using the scanMAX screening platform. More information can be found on the Eurofins Discovery Web site.

[2] = biological target: T2, TRKB (Homo sapiens, UniProt Q16620)
T2 construct: purchased Eurofins Discovery (DiscoverX KINOMEscan scanMAX)
Protocol: as §1

[3] = biological target: T3, FES (Homo sapiens, UniProt P07332)
T3 construct: purchased Eurofins Discovery (DiscoverX KINOMEscan scanMAX)
Protocol: as §1

[4] = biological target: T4, FAK (Homo sapiens, UniProt Q05397)
T4 construct: purchased Eurofins Discovery (DiscoverX KINOMEscan scanMAX)
Protocol: as §1

[5] = biological target: T5, VRK2 (Homo sapiens, UniProt Q86Y07)
T5 construct: purchased Eurofins Discovery (DiscoverX KINOMEscan scanMAX)
Protocol: as §1

[6] = biological target: T6, WNK1 (Homo sapiens, UniProt Q9H4A3)
T6 construct: purchased Eurofins Discovery (DiscoverX KINOMEscan scanMAX)
Protocol: as §1

[7] = biological target: T7, RIOK3 (Homo sapiens, UniProt O14730)
T7 construct: purchased Eurofins Discovery (DiscoverX KINOMEscan scanMAX)
Protocol: as §1

[8] = biological target: T8, TTK (Homo sapiens, UniProt P33981)
T8 construct: purchased Eurofins Discovery (DiscoverX KINOMEscan scanMAX)
Protocol: as §1

[9] = biological target: T9, PLK3 (Homo sapiens, UniProt Q9H4B4)
T9 construct: purchased Eurofins Discovery (DiscoverX KINOMEscan scanMAX)
Protocol: as §1

[10] = biological target: T10, EGFR(L858R) (Homo sapiens, UniProt P00533, L858R)
T10 construct: purchased Eurofins Discovery (DiscoverX KINOMEscan scanMAX)
Protocol: as §1

[11] = biological target: T11, HIPK2 (Homo sapiens, UniProt Q9H2X6)
T11 construct: purchased Eurofins Discovery (DiscoverX KINOMEscan scanMAX)
Protocol: as §1

[12] = biological target: T12, FLT3(D835Y) (Homo sapiens, UniProt P36888, D835Y)
T12 construct: purchased Eurofins Discovery (DiscoverX KINOMEscan scanMAX)
Protocol: as §1

[13] = biological target: T13, DRAK1 (Homo sapiens, UniProt Q9UEE5)
T13 construct: purchased Eurofins Discovery (DiscoverX KINOMEscan scanMAX)
Protocol: as §1

[14] = biological target: T14, BRSK2 (Homo sapiens, UniProt Q8IWQ3)
T14 construct: purchased Eurofins Discovery (DiscoverX KINOMEscan scanMAX)
Protocol: as §1

[15] = biological target: T15, CSNK1G3 (Homo sapiens, UniProt Q9Y6M4)
T15 construct: purchased Eurofins Discovery (DiscoverX KINOMEscan scanMAX)
Protocol: as §1

[16] = biological target: T16, MAK (Homo sapiens, UniProt P20794)
T16 construct: purchased Eurofins Discovery (DiscoverX KINOMEscan scanMAX)
Protocol: as §1

[17] = biological target: T17, CDK11 (Homo sapiens, UniProt Q9BWU1)
T17 construct: purchased Eurofins Discovery (DiscoverX KINOMEscan scanMAX)
Protocol: as §1

[18] = biological target: T18, CDK4 (Homo sapiens, UniProt P11802)
T18 construct: purchased Eurofins Discovery (DiscoverX KINOMEscan scanMAX)
Protocol: as §1

[19] = biological target: T19, AMPK-alpha1 (Homo sapiens, UniProt Q13131)
T19 construct: purchased Eurofins Discovery (DiscoverX KINOMEscan scanMAX)
Protocol: as §1

[20] = biological target: T20, EGFR(L747-E749del, A750P) (Homo sapiens, UniProt P00533, A750P/DEL747-749)
T20 construct: purchased Eurofins Discovery (DiscoverX KINOMEscan scanMAX)
Protocol: as §1

[21] = biological target: T21, DAPK3 (Homo sapiens, UniProt O43293)
T21 construct: purchased Eurofins Discovery (DiscoverX KINOMEscan scanMAX)
Protocol: as §1

[22] = biological target: T22, CSNK1E (Homo sapiens, UniProt P49674)
T22 construct: purchased Eurofins Discovery (DiscoverX KINOMEscan scanMAX)
Protocol: as §1

[23] = biological target: T23, PKAC-alpha (Homo sapiens, UniProt P17612)
T23 construct: purchased Eurofins Discovery (DiscoverX KINOMEscan scanMAX)
Protocol: as §1

[24] = biological target: T24, ABL1(H396P)-phosphorylated (Homo sapiens, UniProt P00519, H396P)
T24 construct: purchased Eurofins Discovery (DiscoverX KINOMEscan scanMAX)
Protocol: as §1

[25] = biological target: T25, MAPKAPK2 (Homo sapiens, UniProt P49137)
T25 construct: purchased Eurofins Discovery (DiscoverX KINOMEscan scanMAX)
Protocol: as §1

[26] = biological target: T26, ALK(L1196M) (Homo sapiens, UniProt Q9UM73, L1196M)
T26 construct: purchased Eurofins Discovery (DiscoverX KINOMEscan scanMAX)
Protocol: as §1

[27] = biological target: T27, PIK3C2G (Homo sapiens, UniProt O75747)
T27 construct: purchased Eurofins Discovery (DiscoverX KINOMEscan scanMAX)
Protocol: as §1

[28] = biological target: T28, RET(M918T) (Homo sapiens, UniProt P07949, M918T)
T28 construct: purchased Eurofins Discovery (DiscoverX KINOMEscan scanMAX)
Protocol: as §1

[29] = biological target: T29, MST2 (Homo sapiens, UniProt Q13188)
T29 construct: purchased Eurofins Discovery (DiscoverX KINOMEscan scanMAX)
Protocol: as §1

[30] = biological target: T30, PAK4 (Homo sapiens, UniProt O96013)
T30 construct: purchased Eurofins Discovery (DiscoverX KINOMEscan scanMAX)
Protocol: as §1

[31] = biological target: T31, ABL1(T315I)-nonphosphorylated (Homo sapiens, UniProt P00519, T315I)
T31 construct: purchased Eurofins Discovery (DiscoverX KINOMEscan scanMAX)
Protocol: as §1

[32] = biological target: T32, MYLK2 (Homo sapiens, UniProt Q9H1R3)
T32 construct: purchased Eurofins Discovery (DiscoverX KINOMEscan scanMAX)
Protocol: as §1

[33] = biological target: T33, CDK5 (Homo sapiens, UniProt Q00535)
T33 construct: purchased Eurofins Discovery (DiscoverX KINOMEscan scanMAX)
Protocol: as §1

T3 sequence (P07332 whole entry): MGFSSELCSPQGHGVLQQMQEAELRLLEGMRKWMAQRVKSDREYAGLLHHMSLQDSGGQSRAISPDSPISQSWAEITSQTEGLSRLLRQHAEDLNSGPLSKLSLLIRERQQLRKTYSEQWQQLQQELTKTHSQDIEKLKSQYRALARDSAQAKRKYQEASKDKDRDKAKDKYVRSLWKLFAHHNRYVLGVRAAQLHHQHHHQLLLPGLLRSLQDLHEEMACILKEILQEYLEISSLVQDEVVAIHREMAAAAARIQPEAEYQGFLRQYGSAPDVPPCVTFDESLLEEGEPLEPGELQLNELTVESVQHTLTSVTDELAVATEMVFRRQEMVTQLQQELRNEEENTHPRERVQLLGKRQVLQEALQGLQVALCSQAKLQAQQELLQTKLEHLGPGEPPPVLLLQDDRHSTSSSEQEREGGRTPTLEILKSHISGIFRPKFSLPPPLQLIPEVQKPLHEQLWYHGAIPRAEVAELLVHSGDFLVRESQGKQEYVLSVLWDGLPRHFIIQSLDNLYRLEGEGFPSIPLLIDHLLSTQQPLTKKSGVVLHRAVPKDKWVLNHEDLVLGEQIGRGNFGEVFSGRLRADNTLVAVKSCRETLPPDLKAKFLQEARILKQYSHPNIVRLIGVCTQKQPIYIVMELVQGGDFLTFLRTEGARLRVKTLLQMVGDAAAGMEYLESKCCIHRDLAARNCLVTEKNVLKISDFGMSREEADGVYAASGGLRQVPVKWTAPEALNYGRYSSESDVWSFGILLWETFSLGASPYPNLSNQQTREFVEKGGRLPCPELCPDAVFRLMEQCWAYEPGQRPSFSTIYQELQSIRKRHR
T17 sequence (Q9BWU1 whole entry): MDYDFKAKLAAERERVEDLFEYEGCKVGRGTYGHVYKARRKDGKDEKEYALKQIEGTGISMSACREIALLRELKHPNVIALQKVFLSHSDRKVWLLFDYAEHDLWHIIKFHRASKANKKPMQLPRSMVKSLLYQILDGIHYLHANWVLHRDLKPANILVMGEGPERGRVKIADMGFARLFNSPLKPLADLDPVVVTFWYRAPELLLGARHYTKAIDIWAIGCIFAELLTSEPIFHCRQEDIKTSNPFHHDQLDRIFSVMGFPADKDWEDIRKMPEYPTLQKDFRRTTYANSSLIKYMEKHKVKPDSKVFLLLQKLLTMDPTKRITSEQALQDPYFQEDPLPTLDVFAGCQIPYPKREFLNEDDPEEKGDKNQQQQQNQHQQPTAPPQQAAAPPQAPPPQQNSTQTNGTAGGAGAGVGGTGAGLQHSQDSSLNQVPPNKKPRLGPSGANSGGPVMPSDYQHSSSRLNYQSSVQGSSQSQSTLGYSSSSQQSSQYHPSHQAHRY
T13 sequence (Q9UEE5 whole entry): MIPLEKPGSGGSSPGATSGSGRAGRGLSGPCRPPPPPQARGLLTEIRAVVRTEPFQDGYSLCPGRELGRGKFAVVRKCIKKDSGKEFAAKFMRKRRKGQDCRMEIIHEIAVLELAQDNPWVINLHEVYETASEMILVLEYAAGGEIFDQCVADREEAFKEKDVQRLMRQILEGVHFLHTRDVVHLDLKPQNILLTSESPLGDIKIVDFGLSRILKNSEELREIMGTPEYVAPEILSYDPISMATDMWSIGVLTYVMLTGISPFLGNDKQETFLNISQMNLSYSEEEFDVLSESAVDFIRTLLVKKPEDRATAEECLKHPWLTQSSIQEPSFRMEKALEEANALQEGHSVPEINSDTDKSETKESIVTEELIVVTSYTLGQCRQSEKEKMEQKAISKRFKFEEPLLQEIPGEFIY
T20 sequence (P00533 with tags, fused parts or gaps DEL747-749/A750P limits assumed): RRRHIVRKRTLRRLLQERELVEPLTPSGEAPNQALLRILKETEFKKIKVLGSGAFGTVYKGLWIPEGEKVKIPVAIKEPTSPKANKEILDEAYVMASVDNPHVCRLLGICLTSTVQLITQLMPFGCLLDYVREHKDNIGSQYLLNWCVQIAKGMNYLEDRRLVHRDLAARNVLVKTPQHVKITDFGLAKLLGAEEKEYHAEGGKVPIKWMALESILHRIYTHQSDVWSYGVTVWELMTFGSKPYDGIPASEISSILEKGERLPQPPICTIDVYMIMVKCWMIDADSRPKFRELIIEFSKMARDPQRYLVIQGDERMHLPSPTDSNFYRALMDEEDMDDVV
T10 sequence (P00533 25-1210 L858R): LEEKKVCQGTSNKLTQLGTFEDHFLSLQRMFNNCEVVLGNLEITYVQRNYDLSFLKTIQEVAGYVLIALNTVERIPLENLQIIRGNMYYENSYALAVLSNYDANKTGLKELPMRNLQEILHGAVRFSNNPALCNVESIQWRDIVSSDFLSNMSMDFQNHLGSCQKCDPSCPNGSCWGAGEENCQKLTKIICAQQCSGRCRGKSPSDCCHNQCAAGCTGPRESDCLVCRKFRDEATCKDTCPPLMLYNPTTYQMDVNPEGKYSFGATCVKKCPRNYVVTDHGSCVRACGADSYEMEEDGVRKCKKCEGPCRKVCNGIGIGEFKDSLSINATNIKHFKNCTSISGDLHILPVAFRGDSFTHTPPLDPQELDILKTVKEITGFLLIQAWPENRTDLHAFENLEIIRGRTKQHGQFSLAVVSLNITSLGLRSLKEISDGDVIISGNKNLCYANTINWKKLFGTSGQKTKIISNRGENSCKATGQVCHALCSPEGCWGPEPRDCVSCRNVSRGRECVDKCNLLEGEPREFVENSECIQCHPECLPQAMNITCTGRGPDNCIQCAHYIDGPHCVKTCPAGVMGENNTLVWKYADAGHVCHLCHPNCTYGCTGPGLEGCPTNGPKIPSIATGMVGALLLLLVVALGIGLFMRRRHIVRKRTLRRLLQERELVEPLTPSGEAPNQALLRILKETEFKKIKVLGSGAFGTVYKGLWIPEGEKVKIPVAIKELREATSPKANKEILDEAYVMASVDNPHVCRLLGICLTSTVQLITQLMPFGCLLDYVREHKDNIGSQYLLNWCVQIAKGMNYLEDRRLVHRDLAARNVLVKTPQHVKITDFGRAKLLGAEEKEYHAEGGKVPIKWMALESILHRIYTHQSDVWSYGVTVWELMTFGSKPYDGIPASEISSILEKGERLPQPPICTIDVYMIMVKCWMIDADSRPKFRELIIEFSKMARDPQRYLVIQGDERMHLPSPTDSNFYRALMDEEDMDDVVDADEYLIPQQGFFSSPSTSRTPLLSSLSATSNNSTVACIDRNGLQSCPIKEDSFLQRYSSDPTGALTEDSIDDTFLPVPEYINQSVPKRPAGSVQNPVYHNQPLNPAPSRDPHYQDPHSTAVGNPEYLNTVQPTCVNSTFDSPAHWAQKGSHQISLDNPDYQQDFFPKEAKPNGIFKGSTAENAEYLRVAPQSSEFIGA
T4 sequence (Q05397 whole entry): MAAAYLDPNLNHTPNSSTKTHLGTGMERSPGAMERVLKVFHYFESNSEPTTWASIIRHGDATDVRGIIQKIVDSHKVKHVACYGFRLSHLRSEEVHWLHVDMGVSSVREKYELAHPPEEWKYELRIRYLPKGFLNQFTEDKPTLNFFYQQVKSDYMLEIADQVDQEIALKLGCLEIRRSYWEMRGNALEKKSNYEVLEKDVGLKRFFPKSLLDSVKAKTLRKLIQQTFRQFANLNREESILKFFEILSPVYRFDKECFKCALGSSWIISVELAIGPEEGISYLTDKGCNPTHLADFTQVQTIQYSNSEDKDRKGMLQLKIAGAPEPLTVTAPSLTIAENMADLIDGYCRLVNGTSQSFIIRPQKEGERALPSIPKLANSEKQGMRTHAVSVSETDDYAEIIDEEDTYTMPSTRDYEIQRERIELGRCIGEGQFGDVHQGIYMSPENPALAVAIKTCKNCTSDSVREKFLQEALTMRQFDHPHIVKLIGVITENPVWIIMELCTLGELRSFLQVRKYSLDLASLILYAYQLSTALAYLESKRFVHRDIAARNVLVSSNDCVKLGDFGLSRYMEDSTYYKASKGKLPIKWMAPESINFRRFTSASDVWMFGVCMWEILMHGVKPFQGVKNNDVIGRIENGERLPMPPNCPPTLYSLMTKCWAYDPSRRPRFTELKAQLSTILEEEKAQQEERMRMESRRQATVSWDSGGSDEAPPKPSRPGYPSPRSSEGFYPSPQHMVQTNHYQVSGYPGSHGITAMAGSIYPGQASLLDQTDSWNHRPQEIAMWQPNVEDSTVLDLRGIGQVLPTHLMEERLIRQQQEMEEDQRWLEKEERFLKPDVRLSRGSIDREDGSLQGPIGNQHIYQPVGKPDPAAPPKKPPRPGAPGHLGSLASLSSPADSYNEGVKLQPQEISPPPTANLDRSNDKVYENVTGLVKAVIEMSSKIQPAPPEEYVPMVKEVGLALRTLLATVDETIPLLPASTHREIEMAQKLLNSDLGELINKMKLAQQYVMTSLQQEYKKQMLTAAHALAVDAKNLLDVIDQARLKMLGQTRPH
T14 sequence (Q8IWQ3 whole entry): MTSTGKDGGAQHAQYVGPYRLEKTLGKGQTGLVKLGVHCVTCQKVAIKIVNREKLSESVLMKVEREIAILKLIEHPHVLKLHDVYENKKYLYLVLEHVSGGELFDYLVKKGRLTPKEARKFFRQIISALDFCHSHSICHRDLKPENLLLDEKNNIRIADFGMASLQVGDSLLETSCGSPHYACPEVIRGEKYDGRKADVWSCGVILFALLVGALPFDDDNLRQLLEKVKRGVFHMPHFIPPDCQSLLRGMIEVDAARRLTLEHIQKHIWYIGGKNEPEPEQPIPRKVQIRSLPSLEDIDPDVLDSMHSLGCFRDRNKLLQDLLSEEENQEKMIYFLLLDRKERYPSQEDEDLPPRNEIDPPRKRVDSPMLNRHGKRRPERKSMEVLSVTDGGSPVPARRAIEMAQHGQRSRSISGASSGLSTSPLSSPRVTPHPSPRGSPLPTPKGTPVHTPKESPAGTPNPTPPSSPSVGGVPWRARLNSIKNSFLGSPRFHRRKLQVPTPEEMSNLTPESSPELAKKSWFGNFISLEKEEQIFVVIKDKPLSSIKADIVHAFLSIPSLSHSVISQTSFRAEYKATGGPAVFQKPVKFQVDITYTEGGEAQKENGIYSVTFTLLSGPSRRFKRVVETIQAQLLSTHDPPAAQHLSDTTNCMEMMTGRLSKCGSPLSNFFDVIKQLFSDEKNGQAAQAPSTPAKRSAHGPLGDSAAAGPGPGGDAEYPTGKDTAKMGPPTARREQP

Cc1cc(Nc2ccc(F)c(CC3(C(=O)N4CCC(F)(CN5CCN(c6ccc(N7CCC(=O)NC7=O)cn6)CC5)CC4)CCN(Cc4cccc(Cl)c4F)CC3)n2)n[nH]1 [SK5527]
remaining binding at 0.1 µM ([1]; 100 nM): 100%
remaining binding at 1 µM ([1]; 1000 nM): 89%
remaining binding at 0.1 µM ([2]; 100 nM): 95%
remaining binding at 1 µM ([2]; 1000 nM): 47%
remaining binding at 0.1 µM ([3]; 100 nM): 100%
remaining binding at 1 µM ([3]; 1000 nM): 100%
remaining binding at 0.1 µM ([4]; 100 nM): 90%
remaining binding at 1 µM ([4]; 1000 nM): 77%
remaining binding at 0.1 µM ([5]; 100 nM): 82%
remaining binding at 1 µM ([5]; 1000 nM): 77%
remaining binding at 0.1 µM ([6]; 100 nM): 73%
remaining binding at 1 µM ([6]; 1000 nM): 77%
remaining binding at 0.1 µM ([7]; 100 nM): 96%
remaining binding at 1 µM ([7]; 1000 nM): 82%
remaining binding at 0.1 µM ([8]; 100 nM): 100%
remaining binding at 1 µM ([8]; 1000 nM): 100%
remaining binding at 0.1 µM ([9]; 100 nM): 100%
remaining binding at 1 µM ([9]; 1000 nM): 86%
remaining binding at 0.1 µM ([10]; 100 nM): 97%
remaining binding at 1 µM ([10]; 1000 nM): 83%
remaining binding at 0.1 µM ([11]; 100 nM): 100%
remaining binding at 1 µM ([11]; 1000 nM): 91%
remaining binding at 0.1 µM ([12]; 100 nM): 69%
remaining binding at 1 µM ([12]; 1000 nM): 72%
remaining binding at 0.1 µM ([13]; 100 nM): 100%
remaining binding at 1 µM ([13]; 1000 nM): 87%
remaining binding at 0.1 µM ([14]; 100 nM): 100%
remaining binding at 1 µM ([14]; 1000 nM): 100%
remaining binding at 0.1 µM ([15]; 100 nM): 100%
remaining binding at 1 µM ([15]; 1000 nM): 92%
remaining binding at 0.1 µM ([16]; 100 nM): 100%
remaining binding at 1 µM ([16]; 1000 nM): 100%
remaining binding at 0.1 µM ([17]; 100 nM): 92%
remaining binding at 1 µM ([17]; 1000 nM): 85%
remaining binding at 0.1 µM ([18]; 100 nM): 72%
remaining binding at 1 µM ([18]; 1000 nM): 90%
remaining binding at 0.1 µM ([19]; 100 nM): 100%
remaining binding at 1 µM ([19]; 1000 nM): 100%
remaining binding at 0.1 µM ([20]; 100 nM): 100%
remaining binding at 1 µM ([20]; 1000 nM): 97%
remaining binding at 0.1 µM ([21]; 100 nM): 100%
remaining binding at 1 µM ([21]; 1000 nM): 100%
remaining binding at 0.1 µM ([22]; 100 nM): 92%
remaining binding at 1 µM ([22]; 1000 nM): 91%
remaining binding at 0.1 µM ([23]; 100 nM): 83%
remaining binding at 1 µM ([23]; 1000 nM): 86%
remaining binding at 0.1 µM ([24]; 100 nM): 88%
remaining binding at 1 µM ([24]; 1000 nM): 70%
remaining binding at 0.1 µM ([25]; 100 nM): 84%
remaining binding at 1 µM ([25]; 1000 nM): 100%
remaining binding at 0.1 µM ([26]; 100 nM): 91%
remaining binding at 1 µM ([26]; 1000 nM): 100%
remaining binding at 0.1 µM ([27]; 100 nM): 71%
remaining binding at 1 µM ([27]; 1000 nM): 98%
remaining binding at 0.1 µM ([28]; 100 nM): 95%
remaining binding at 1 µM ([28]; 1000 nM): 38%
remaining binding at 0.1 µM ([29]; 100 nM): 76%
remaining binding at 1 µM ([29]; 1000 nM): 55%
remaining binding at 0.1 µM ([30]; 100 nM): 100%
remaining binding at 1 µM ([30]; 1000 nM): 81%
remaining binding at 0.1 µM ([31]; 100 nM): 24%
remaining binding at 1 µM ([31]; 1000 nM): 0%
remaining binding at 0.1 µM ([32]; 100 nM): 100%
remaining binding at 1 µM ([32]; 1000 nM): 100%
remaining binding at 0.1 µM ([33]; 100 nM): 100%
remaining binding at 1 µM ([33]; 1000 nM): 100%
